The assay concerns the target recombinant human AMPK complex 1 (containing α1β1γ1) (Homo sapiens, UniProt Q13131+Q9Y478). Description: AMPKSAMSF (in vitro AMPK activation assay). The format is biochemical. The note with it: recombinant human AMPK complex 1 (α1β1γ1); for Emax: basal activity subtracted, read-out: % Maximum AMP Activation of human AMPK Complex 1. Here is the method:
The recombinant human AMPK complex 1 (containing α1β1γ1) was obtained from baculovirus expression system. Recombinant viruses were generated by cotransfection of AMPK/pBacPak9 clones with Baculogold baculovirus DNA (Pharmingen) in spodoptera frugiperda 21 cells according to the manufacturer's instructions. Each round of virus amplification was performed for 5 days in Grace's medium containing 10% serum. Virus that had been subjected to three rounds of amplification was used for all protein production procedures. To express the AMPK complex, sf21 cells were adapted to serum free medium (SF900 II, Invitrogen) by sequential dilution from serum containing stocks into SF900II medium and maintained in shaker flasks at 90 rpm at 27° C. The recombinant AMPK enzyme complex was produced by triple infection, one recombinant virus for each of the subunits, in sf21 cells under serum free conditions. Cells were infected in log phase, 1×10^6 cells/ml, at a multiplicity of infection of ˜5. Cells were harvested by centrifugation at 10,000×g for 15 minutes after 72 hours of infection with viruses. The insect cell pellet from 2 liters of culture was resuspended in 50 ml lysis buffer (20 mM Tris-HCl, 50 mM NaCl, 50 mM NaF, 30 mM Na PPi, 0.25 M sucrose, 10 mM ZnCl2, 2 mM DTT, 0.4 mg/ml digitonin) and subjected to two cycles of freeze-thaw lysis in a dry-ice ethanol bath. Insoluble material was removed by centrifugation at 10,000×g and the supernatant was fractionated with use of polyethylene glycol (PEG). The protein fraction precipitating between 2.5 and 6% PEG was used for further purification using a Blue-Sepharose step (Zhou et al, J. Clin Invest. 108, 1167-1174, 2001).
The total in vitro AMPK activation assay volume is 50 μl in a 96-well plate. The reaction mixture contained 100 μM ATP (0.5 μCi ^33P-ATP per reaction), and 50 μM SAMS (HMRSAMSGLHLVKRR) in a buffer (20 mM HEPES, pH 7.0, 5 mM MgCl2, 0.01% Brij35). The reaction was initiated with addition of the enzyme. After 30-minute incubation at 30° C., the reaction was stopped by addition of 80 μl 1% H3PO4. Aliquots (100 μl) were transferred to 96-well MultiScreen plates (MAPHNOB50; Millipore Corp., Bedford, Mass., USA). The plate was washed three times with 1% H3PO4 followed by detection in a Top-count. The counts per minute from the basal activity (the reaction without activator) was subtracted from each well and the data were expressed as % maximum AMP activation followed by EC50 calculation.

Where only a bound is given, the exact number is not on record here.

Chain of recombinant human AMPK complex 1 (containing α1β1γ1) (Q13131 whole entry): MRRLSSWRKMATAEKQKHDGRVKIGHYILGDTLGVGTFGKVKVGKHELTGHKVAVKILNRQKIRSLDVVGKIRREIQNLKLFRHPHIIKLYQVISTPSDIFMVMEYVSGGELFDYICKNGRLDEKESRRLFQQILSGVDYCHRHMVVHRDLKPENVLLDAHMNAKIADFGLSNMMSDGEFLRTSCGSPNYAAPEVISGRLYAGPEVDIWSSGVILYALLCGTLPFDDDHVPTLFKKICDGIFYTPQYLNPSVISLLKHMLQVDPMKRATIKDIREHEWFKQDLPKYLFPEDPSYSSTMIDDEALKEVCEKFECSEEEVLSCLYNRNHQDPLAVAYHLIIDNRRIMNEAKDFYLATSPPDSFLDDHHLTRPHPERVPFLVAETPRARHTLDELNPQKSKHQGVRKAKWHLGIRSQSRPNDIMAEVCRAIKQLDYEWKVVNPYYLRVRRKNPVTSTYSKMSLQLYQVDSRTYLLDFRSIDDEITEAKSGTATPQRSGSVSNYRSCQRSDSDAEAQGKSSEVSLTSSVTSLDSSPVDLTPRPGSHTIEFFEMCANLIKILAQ
Chain of recombinant human AMPK complex 1 (containing α1β1γ1) (Q9Y478 whole entry): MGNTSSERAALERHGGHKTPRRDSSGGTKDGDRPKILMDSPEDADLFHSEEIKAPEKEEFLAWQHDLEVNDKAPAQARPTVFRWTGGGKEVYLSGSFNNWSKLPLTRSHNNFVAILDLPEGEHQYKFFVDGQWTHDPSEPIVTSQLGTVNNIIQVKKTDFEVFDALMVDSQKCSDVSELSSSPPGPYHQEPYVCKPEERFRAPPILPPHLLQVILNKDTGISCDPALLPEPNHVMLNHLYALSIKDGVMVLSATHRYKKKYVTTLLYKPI
Chain of recombinant human AMPK complex 1 (containing α1β1γ1) (P54619 whole entry partner): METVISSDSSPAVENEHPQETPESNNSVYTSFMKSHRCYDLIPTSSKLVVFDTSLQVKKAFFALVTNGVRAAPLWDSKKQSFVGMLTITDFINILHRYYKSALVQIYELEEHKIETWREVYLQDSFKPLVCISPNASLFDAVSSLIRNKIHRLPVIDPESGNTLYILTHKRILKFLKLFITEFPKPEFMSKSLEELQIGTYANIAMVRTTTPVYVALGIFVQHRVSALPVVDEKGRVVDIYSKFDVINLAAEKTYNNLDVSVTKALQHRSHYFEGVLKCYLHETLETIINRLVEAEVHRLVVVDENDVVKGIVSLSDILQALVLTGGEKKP

Consider `CCC(=O)SCCOP(=O)(CSc1nc2cc(-c3ccc(-c4ccccc4)cc3)c(Cl)cc2[nH]1)OCCSC(=O)CC` [Example 33, Thiopropionic acid S-{2-[(5-biphenyl-4-yl-6-chloro-1H-benzoimidazol-2-ylsulfanylmethyl)-(2-propionylsulfanyl-ethoxy)-phosphinoyloxy]-ethyl}ester], for which the Emax is more than 60%.
Still for that read-out and setting: in the case of `O=P(O)(O)CSc1nc2cc(-c3ccc(Cl)c(F)c3)c(Cl)cc2[nH]1` [Example 15, [6-Chloro-5-(4-chloro-3-fluoro-phenyl)-1H-benzoimidazol-2-ylsulfanylmethyl]phosphonic acid] it was more than 60%; in that of `Cc1cncc(-c2ccc(-c3cc4nc(SCP(=O)(O)O)[nH]c4cc3Cl)cc2)c1` [Example 24, (5-chloro-6-[4-(5-methyl-pyridin-3-yl)-phenyl]-1H-benzo[d]imidazol-2-ylthio)methylphosphonic acid], more than 60%.
The term EC50 denotes the midpoint of the concentration-response curve. In the case of `O=P(O)(O)CSc1nc2cc(-c3ccc4[nH]ccc4c3)c(Cl)cc2[nH]1` [Example 27], the 50% effective concentration (EC50) came out at 233 nM.
As to `O=P(O)(O)CSc1nc2cc(C#Cc3cccc(F)c3)c(Cl)cc2[nH]1` [Example 4], the Emax is more than 60%.
In the case of `O=P(O)(O)CSc1nc2cc(C#Cc3ccc(F)cc3)c(Cl)cc2[nH]1` [Example 2], the Emax is more than 60%.
Take `O=P(O)(O)CSc1nc2cc(-c3ccc(-c4ccccc4)cc3)c(Cl)cc2[nH]1` [Example 29]: the EC50 was 137 nM.
Regarding `CC(C)Oc1ccc(-c2ccc(-c3cc4nc(SCP(=O)(O)O)[nH]c4cc3Cl)cc2)cc1` [Example 23, (5-chloro-6-(4′-isopropoxy-biphenyl-4-yl)-1H-benzo[d]imidazol-2-ylthio)methylphosphonic acid], the Emax is more than 60%.
On the same count and under the same terms, in the case of `O=P(O)(O)CSc1nc2cc(C#Cc3ccccn3)c(Cl)cc2[nH]1` [Example 5] it was more than 60%; in that of `O=P1(CSc2nc3cc(-c4ccc(-c5ccccc5)cc4)c(Cl)cc3[nH]2)OCCC(c2cccc(Cl)c2)O1` (centres unmarked) [Example 30, 5-Biphenyl-4-yl-6-chloro-2-[4-(3-chloro-phenyl)-2-oxo-2lambda*5*-[1,3,2]-dioxaphosphinan-2-ylmethylsulfanyl]-1H-benzoimidazole], more than 60%.
With `O=P(O)(O)CSc1nc2cc(C#Cc3ccc(F)cc3F)c(Cl)cc2[nH]1` [Example 8], the EC50 turned out to be 184 nM.
As for `O=[P@]1(CSc2nc3cc(-c4ccc(-c5ccccc5)cc4)c(Cl)cc3[nH]2)OCC[C@@H](c2ccncc2)O1` [Example 34, 5-Biphenyl-4-yl-6-chloro-2-(cis{5[1-yl-(4-pyridyl)]}-1-phosphono-2,6-dioxophosphinan-2-ylmethylsulfanyl)-1H-benzoimidazole], the Emax was more than 60%.
The same measure, in the same setting: in the case of `O=P(O)(O)CSc1nc2cc(-c3ccc(N4CCOCC4)cc3)c(Cl)cc2[nH]1` [Example 20, (5-chloro-6-(4-morpholinophenyl)-1H-benzo[d]imidazol-2-ylthio)methylphosphonic acid] it was more than 60%.
Take `O=P(O)(O)CCc1nc2cc(-c3ccc(-c4ccccc4)cc3)c(Cl)cc2[nH]1` [Example 26, [2-(Biphenyl-4-yl-6-chloro-1H-benzoimidazol-2-yl)-ethyl]-phosphonic acid]: the Emax is more than 60%.
The same measure, in the same setting: in the case of `O=C(NC1CC1)c1cc(-c2cc3nc(SCP(=O)(O)O)[nH]c3cc2Cl)ccc1Cl` [Example 18, [6-Chloro-5-(4-chloro-3-cyclopropylcarbamoyl-phenyl)-1H-benzoimidazol-2-ylsulfanylmethyl]-phosohonic acid] it was more than 60%.
Same read-out and setting: in the case of `O=P(O)(O)CSc1nc2cc(C#Cc3ccc(C(F)(F)F)cc3)c(Cl)cc2[nH]1` [Example 3] it was more than 60%.
As to `O=P(O)(O)CSc1nc2cc(-c3ccc(Cl)c(Cl)c3)c(Cl)cc2[nH]1` [Example 16, [6-Chloro-5-(3,4-dichloro-phenyl)-1H-benzoimidazol-2-ylsulfanylmethyl]-phosphonic acid], the Emax was more than 60%.
Same read-out and setting: in the case of `O=P(O)(O)CSc1nc2cc(C#Cc3ccccc3O)c(Cl)cc2[nH]1` [Example 9] it was more than 60%.
`CSc1ccc(-c2cc3nc(SCP(=O)(O)O)[nH]c3cc2Cl)cc1` [Example 17, [6-Chloro-5-(4-methylsulfanyl-phenyl)-1H-benzoimidazol-2-ylsulfanylmethyl]-phosphonic acid]: the Emax is more than 60%.
The same measure, in the same setting: in the case of `CCC(=O)SCCOP(=O)(O)CSc1nc2cc(-c3ccc(-c4ccccc4)cc3)c(Cl)cc2[nH]1` [Example 32, Thiopropionic acid S-{2-[(5-biphenyl-4-yl-6-chloro-1H-benzoimidazol-2-ylsulfanylmethyl)-hydroxy-phosphinoyloxy]-ethyl}ester] it was more than 60%.
Take `CN(C)C(=O)c1ccc(-c2cc3nc(SCP(=O)(O)O)[nH]c3cc2Cl)cc1` [Example 14, [6-Chloro-5-(4-dimethylcarbamoyl-phenyl)-1H-benzoimidazol-2-ylsulfanylmethyl]-phosphonic acid]: the Emax is more than 60%.
Take `O=P(O)(O)CSc1nc2cc(C#Cc3cccnc3)c(Cl)cc2[nH]1` [Example 10]: the Emax is more than 60%.
Still for that read-out and setting: in the case of `O=[P@@]1(CSc2nc3cc(-c4ccc(-c5ccccc5)cc4)c(Cl)cc3[nH]2)OCC[C@@H](c2ccncc2)O1` [Example 35, 5-Biphenyl-4-yl-6-chloro-2-(trans{5[1-yl-(4-pyridyl)]}-1-phosphono-2,6-dioxophosphinan-2-ylmethylsulfanyl)-1H-benzoimidazole] it was more than 60%; in that of `O=P(O)(O)CSc1nc2cc(C#Cc3ccccc3F)c(Cl)cc2[nH]1` [Example 6], more than 60%.
Still for that read-out and setting: in the case of `O=P(O)(O)CSc1nc2cc(C#Cc3ccc(CO)cc3)c(Cl)cc2[nH]1` [Example 7] it was more than 60%.
On the same count and under the same terms, in the case of `COc1ccc(COP(=O)(O)CSc2nc3cc(-c4ccc(-c5ccccc5)cc4)c(Cl)cc3[nH]2)cc1F` [Example 31, (5-Biphenyl-4-yl-6-chloro-1H-benzoimidazol-2-ylsulfanylmethyl)-phosphonic acid mono-(3-fluoro-4-methoxy-benzyl)ester] it was more than 60%.
For `Cn1ccc2cc(-c3cc4nc(SCP(=O)(O)O)[nH]c4cc3Cl)ccc21` [Example 28], the EC50 came out at 58 nM.
`CCOP(=O)(CSc1nc2cc(-c3ccc(Br)cc3)c(Cl)cc2[nH]1)OCC` [Example 13]: the Emax is more than 60%.
Same read-out and setting: in the case of `O=P(O)(O)CCCc1nc2cc(-c3ccc(-c4ccccc4)cc3)c(Cl)cc2[nH]1` [Example 25, [3-(5-Biphenyl-4-yl-6-chloro-1H-benzoimidazol-2-yl)-propyl]-phosphonic acid] it was more than 60%.
Take `O=P(O)(O)CSc1nc2cc(-c3ccc(-c4cccnc4)cc3)c(Cl)cc2[nH]1` [Example 22, (5-chloro-6-(4-(pyridin-3-yl)phenyl)-1H-benzo[d]imidazol-2-ylthio)methyl-phosphonic acid]: the concentration giving a half-maximal response (EC50) came to 82 nM.
For the compound `O=P(O)(O)CSc1nc2cc(C#Cc3ccc(Cl)cc3)c(Cl)cc2[nH]1` [Example 11], the Emax was more than 60%.
Same read-out and setting: in the case of `COc1ccc(-c2ccc(-c3cc4nc(SCP(=O)(O)O)[nH]c4cc3Cl)cc2)cn1` [Example 21, (5-chloro-6-(4-(6-methoxypyridin-3-yl)phenyl)-1H-benzo[d]imidazol-2-ylthio)methylphosphonic acid] it was more than 60%.

Values taken from patent publication US8329914B2, “Cyclic benzimidazole derivatives useful as anti-diabetic agents” (Merck Sharp & Dohme Corp, priority 2008, dated 2012).
